Laboratory results: US11479561B2, “Tetrahydroisoquinoline derivatives” (Cytokinetics, Incorporated, priority 2016, dated 2022)

Tested on: rabbit skeletal myofibrils (approximately 90% fast fibers)
Assay: Activation of fast skeletal myofibrils (PUMA coupled-enzyme ATPase assay)
Format: biochemical
Conditions: concentration at which the compound increased the enzymatic activity by 40%; calcium level pCa25
Protocol: Preparation of fast skeletal myofibrils: Rabbit skeletal myofibrils were prepared based upon the method of Herrmann et al. (Biochem. 32(28):7255-7263(1993). Myofibrils were prepared from rabbit psoas muscle purchased from Pel-Freez Biologicals (Arkansas) within 2 days of ordering, stored on ice. Minced muscle was homogenized in 10 volumes of ice-cold “standard” buffer (50 mM Tris, pH 7.4, 0.1 M KOAc, 5 mM KCl, 2 mM dithiothreitol (DTT), 0.2 mM phenylmethylsulfonyl fluoride (PMSF), 10 μM leupeptin, 5 μM pepstatin, and 0.5 mM sodium azide) containing 5 mM ethylenediaminetetraacetic acid (EDTA) and 0.5% Triton X-100 using an Omni-Macro homogenizer. Myofibrils were recovered by low speed centrifugation (3000 rpm for 10 minutes) and washed 2 times in the Triton X-100 containing buffer to ensure removal of cellular membrane. Following the Triton washes, myofibrils were washed 3 times in “standard” buffer containing 2 mM magnesium acetate. A final wash in assay buffer (12 mM piperazine-1,4-bis(2-ethanesulfonic acid) (PIPES), pH 6.8, 60 mM KCl, 1 mM DTT) was performed and brought to 10% sucrose for flash freezing in liquid nitrogen and storage at −80° C.
Activation of Fast Skeletal Myofibrils: Fast fiber activators were identified by Measuring the enzymatic activity of muscle myofibril preparations using the proprietary PUMA (trademark) (see, e.g., U.S. Pat. Nos. 6,410,254, 6,743,599, 7,202,051, and 7,378,254) assay system. Myofibril preparations consisted of rabbit skeletal muscle (approximately 90% fast fibers) that had been mechanically homogenized and washed with a detergent (Triton X-100) to remove cellular membranes. This preparation retained all of the sarcomeric components in a native conformation and the enzymatic activity was still regulated by calcium. Compounds were tested using a myofibril suspension and a level of calcium sufficient to increase enzymatic activity of the myofibrils to 25% of their maximal rate (termed pCa25). Enzymatic activity was tracked via a pyruvate kinase and lactate dehydrogenase-coupled enzyme system. This assay regenerates myosin-produced ADP into ATP by oxidizing NADH, producing an absorbance change at 340 nm. The buffering system was 12 mM PIPES, 2 mM MgCl2, 1 mM DTT at pH 6.8 (PM12 buffer).

| Compound | AC1.4 [µM] |
| --- | --- |
| CCC1(CC)C(=O)NC2(COC2)c2ccc(Cl)cc21 [compound 43] | 0.051 |
| CCC1(CCO)C(=O)NC2(COC2)c2ccc(C)nc21 (stereo not drawn) [compound 102] | 8.474 |
| CCC1(Cc2ccccc2Cl)C(=O)NC(C)(C)c2ccc(Br)cc21 (stereo not drawn) [compound 79] | <0.077 |
| CCC1(Cc2cccc(Cl)c2)C(=O)NC(C)(C)c2ccc(Br)cc21 (stereo not drawn) [compound 80] | 0.112 |
| CC1(C)NC(=O)C(C)(Cn2cccn2)c2nc(C#N)ccc21 (stereo not drawn) [134a] | 0.626 |
| CC1(C)NC(=O)C(C)(Cc2cn[nH]c2)c2nc(C#N)ccc21 (stereo not drawn) [compound 110] | 3.478 |
| CCC1(CC)C(=O)NC2(COC2)c2ccc(COC(F)F)nc21 [compound 143, 2-[(difluoromethoxy)methyl]-8,8-diethyl-6H-spiro[1,6-naphthyridine-5,3′-oxetan]-7(8H)-one] | 2.830 |
| CC1(C)C(=O)NC2(COC2)c2ccc(Cl)nc21 [compound 90] | 2.555 |
| CCC1C(=O)NC(C)(C)c2ccc(Br)cc21 (stereo not drawn) [compound 53] | 0.711 |
| CCC1(CC(F)F)C(=O)NC2(COC2)c2ccc(OC)nc21 (stereo not drawn) [compound 145] | 0.581 |
| CCC1(CC)C(=O)NC(C)(C)c2ncc(Cl)nc21 [compound 69] | 0.485 |
| CC1(C)NC(=O)C2(CCN(S(C)(=O)=O)CC2)c2cc(Cl)ccc21 [compound 155, 6-chloro-1,1-dimethyl-1′-(methylsulfonyl)-1,2-dihydro-3H-spiro[isoquinoline-4,4′-piperidin]-3-one] | 8.340 |
| CCC1(CCO)C(=O)NC(C)(C)c2ccc(Br)cc21 (stereo not drawn) [compound 115] | 0.474 |
| C[C@H](O)CC1(C)C(=O)NC2(COC2)c2ccc(Cl)cc21 (mixture of isomers) [167b, rac-(4R)-6-chloro-4-[(2S)-2-hydroxypropyl]-4-methyl-2H-spiro[isoquinoline-1,3′-oxetan]-3(4H)-one] | 0.869 |
| CCC1(Cc2ccc(Cl)cc2)C(=O)NC(C)(C)c2ccc(Br)cc21 (stereo not drawn) [compound 82] | 0.084 |
| CCC1(CC)C(=O)NC(C)(C(F)F)c2ccc(C#N)cc21 (stereo not drawn) [compound 59] | 0.381 |
| CCC1(CC)C(=O)NC(C)(C)c2ccc(Cl)nc21 [compound 84] | 0.401 |
| CC1(C)NC(=O)C(C)(Cn2cccn2)c2nc(C#N)ccc21 (stereo not drawn) [compound 107] | 1.080 |
| CCC1(CCOC)C(=O)NC2(COC2)c2ccc(C)nc21 (stereo not drawn) [compound 96] | 5.393 |
| Cc1ccc2c(n1)C(C)(CC(F)F)C(=O)NC21COC1 (stereo not drawn) [compound 95] | 0.720 |
| Cc1ccc2c(n1)C(C)(CC(F)F)C(=O)NC21COC1 (stereo not drawn) [92a] | 1.318 |
| CC1(C)NC(=O)C(C)(C)c2nc(C#N)cnc21 [compound 153] | 1.590 |
| CCC1(CC)C(=O)NC2(COC2)c2ncc(Cl)nc21 [compound 68] | 0.830 |

| Compound | AC1.4 [µM] |
| --- | --- |
| CC1(C)NC(=O)C(C)(CCO)c2cc(Cl)cnc21 (stereo not drawn) [compound 159] | 11.374 |
| CC1(C)NC(=O)C(C)(C)c2cc(Br)ccc21 [compound 51] | 0.093 |
| CC1(C)NC(=O)C(c2ccccc2)c2ccccc21 (stereo not drawn) [compound 138] | 7.955 |
| CCC1(CC)C(=O)NC(C)(C)c2cc(Br)c(C#N)cc21 [compound 116] | 0.274 |
| CCC1(CC)C(=O)NC(C)(C)c2c(C#N)cccc21 [compound 63] | 3.707 |
| CCC1(CC)C(=O)NC2(COC2)c2ncc(C#N)cc21 [compound 161] | 1.987 |
| CCC1(CC)C(=O)NC(C)(C)c2ccc(C)cc21 [compound 46] | 0.106 |
| CCC1(CC)C(=O)NC(C)(C)c2cc(C)c(C#N)cc21 [compound 97] | 0.332 |
| C=CCC1(C)C(=O)NC(C)(C)c2ccc(C#N)nc21 (stereo not drawn) [compound 60] | 0.252 |
| CCC1(CC)C(=O)NC(C)(C)c2c(OC)cc(OC)cc21 [compound 50] | 0.763 |
| CCC1(CC(=O)NCc2ccccc2)C(=O)NC(C)(C)c2ccc(Br)cc21 (stereo not drawn) [compound 139] | 30.805 |
| CC1(C)NC(=O)C2(CCOCC2)c2cc(C#N)ccc21 [compound 62] | >39.200 |
| CC1(C)C(=O)NC2(COC2)c2ccc(C(F)F)nc21 [compound 169] | 1.730 |
| CCC1(CC)C(=O)NC(C)(C)c2ccc(Cl)cc21 [compound 48] | <0.077 |
| CCC1(CCCO)C(=O)NC(C)(C)c2ccc(Br)cc21 (stereo not drawn) [compound 54] | 0.596 |
| C=Cc1cnc2c(n1)C(CC)(CC)C(=O)NC21COC1 [compound 94] | 8.994 |
| CCC1(C)C(=O)NC(C)(C)c2ccc(Cl)nc21 (stereo not drawn) [compound 71] | 0.367 |
| CCC1(CCF)C(=O)NC(C)(C)c2ccc(Br)cc21 (stereo not drawn) [compound 81] | 0.098 |
| CC1(C)NC(=O)C(C)(C)c2cc(C#N)cnc21 [compound 58] | 5.040 |
| CCC1(CC(=O)O)C(=O)NC(C)(C)c2ccc(Br)cc21 (stereo not drawn) [compound 91] | 20.240 |
| CC1(C)NC(=O)C(CCF)(CCF)c2cc(Br)ccc21 [compound 140] | 0.199 |
| CCC1(CC)C(=O)NC(C)(C)c2cc(Cl)c(C#N)cc21 [compound 34, 7-chloro-4,4-diethyl-1,1-dimethyl-3-oxo-1,2,3,4-tetrahydroisoquinoline-6-carbonitrile] | 0.229 |
| C#CCC1(C)C(=O)NC(C)(C)c2ccc(C#N)nc21 (stereo not drawn) [compound 111] | 0.321 |

| Compound | AC1.4 [µM] |
| --- | --- |
| CC1(Cn2cccn2)C(=O)NC2(COC2)c2ccc(Cl)cc21 (stereo not drawn) [compound 75] | 1.174 |
| CCC1(CCOC)C(=O)NC2(COC2)c2ccc(C#N)nc21 (stereo not drawn) [compound 112] | 1.437 |
| C[C@@H](O)CC1(C)C(=O)NC2(COC2)c2ccc(Cl)cc21 (mixture of isomers) [167a, rac-(4R)-6-chloro-4-[(2R)-2-hydroxypropyl]-4-methyl-2H-spiro[isoquinoline-1,3′-oxetan]-3(4H)-one] | 3.293 |
| CC1(C)NC(=O)C(C)(Cn2cccn2)c2nc(C#N)ccc21 (stereo not drawn) [134b] | 4.986 |
| CCC1(CC(F)F)C(=O)NC2(COC2)c2ccc(C(F)F)nc21 (stereo not drawn) [compound 88] | 0.203 |
| C=CCC1(C)C(=O)NC(C)(C)c2ccc(Cl)nc21 (stereo not drawn) [compound 76] | 0.223 |
| COC(=O)N1CCC2(CC1)C(=O)NC(C)(C)c1ccc(Cl)cc12 [compound 156] | 5.881 |
| CCC1(CCO)C(=O)NC2(COC2)c2ccc(C#N)cc21 (stereo not drawn) [compound 165] | 1.202 |
| CCC1(CC(F)F)C(=O)NC(C)(C)c2ccc(Br)cc21 (stereo not drawn) [compound 83] | <0.077 |
| CC1(C)C(=O)NC2(COC2)c2ccc(F)cc21 [compound 157] | 2.566 |
| CCC1(CCO)C(=O)NC2(COC2)c2ccc(OC(F)F)nc21 (stereo not drawn) [compound 105] | 4.313 |
| C=CCC1(C)NC(=O)C(CC)(CC)c2nc(Cl)ccc21 (stereo not drawn) [compound 77] | 7.898 |
| CCN(CC)C1C(=O)NC(C)(C)c2ccc(Br)cc21.Cl (stereo not drawn) [compound 65] | 1.052 |
| CCC1(C)C(=O)NC2(COC2)c2ccc(OC(F)F)nc21 (stereo not drawn) [compound 146] | 0.283 |
| COc1ccc2c(n1)C(C)(C)C(=O)NC21COC1 [compound 147] | 2.346 |
| CN(c1ccccc1)C1C(=O)NC(C)(C)c2ccc(Br)cc21.Cl (stereo not drawn) [compound 66] | 2.502 |
| CC1(C)C(=O)NC2(COC2)c2ccc(C#N)nc21 [compound 142] | 2.377 |
| CCC1(CC)C(=O)NC(C)(C)c2cc(C3CC3)c(C#N)cc21 [compound 98] | 2.085 |
| CCC1(CC)C(=O)NC(C)(C)c2ccc(Cl)c(F)c21 [compound 141] | <0.077 |
| CC(C)(O)CC1(C)C(=O)NC2(COC2)c2ccc(Cl)cc21 (stereo not drawn) [compound 137, 6-chloro-4-(2-hydroxy-2-methylpropyl)-4-methyl-2H-spiro[isoquinoline-1,3′-oxetan]-3(4H)-one] | 2.365 |
| CC1(C)NC(=O)C2(CCOCC2)c2cc(Br)ccc21 [compound 44] | 5.982 |
| Cc1ccc2c(n1)C(C)(CC(F)F)C(=O)NC21COC1 (stereo not drawn) [92b] | 0.400 |
| CC1(C)NC(=O)C(C)(Cn2cccn2)c2nc(Cl)ccc21 (stereo not drawn) [compound 70] | 0.522 |
